What was measured:
[1] = test system: excised bronchi of guinea pigs by the action of leukotriene D4; assay: Inhibitory activity on leukotrienes (contraction induced by leukotriene D4 in excised guinea pig bronchi); conditions: Conc. 10^-5 M, treatment before 10 minutes
Procedure: The compounds were evaluated for inhibitory activity on leukotrienes in the following test.
In this test, contraction was induced in excised bronchi of guinea pigs by the action of leukotriene D4, and inhibitory action of the present compounds after treatment before 10 minutes was measured and recorded via a transducer.

SRS-A = assay: Inhibitory activity on biosynthesis and release of chemical mediator (SRS-A), bioassay using excised ileum; design: species or system guinea pigs; conditions: Conc. 10^-5 M
Procedure: The compounds were evaluated for inhibitory activity on biosynthesis and release of a chemical mediator according to the method described by S. Watanabe-Kohno et al [J. Immunol., 125, 946 (1980)] and J. Augastein et al [Nature, 245, 215 (1973)]. In this test, SRS-A was used as a chemical mediator.
The chemical mediator contained in the reaction solution was determined according to bioassay using excised ileum of guinea pigs.
Percent Inhibition (%)=(1-A'/A)×100
A'=contraction level by the reaction solution treated with test compound
A=contraction level by the control reaction solution

[2] = test system: contraction of excised bronchi of guinea pigs by histamine; assay: Inhibition of contraction of excised bronchi of guinea pigs by histamine; conditions: 10^-5 M
PGF2α = assay: Inhibition of contraction of excised bronchi of guinea pigs by PGF2α; conditions: 10^-5 M
rats = assay: Toxicity to rats by oral administration; assay type: in vivo; conditions: 1000 mg/kg by oral administration

SMILES | Percent Inhibition (inhibitory activity on leukotrienes) [1] | Percent Inhibition (biosynthesis and release of chemical mediator) (SRS-A) | inhibitory activity on contraction by histamine [2] | inhibitory activity on contraction by PGF2α (PGF2α) | mortality (rats)
COc1ccc(CCC(C)=C2SC(=S)NC2=O)cc1OC (single isomer, unassigned) [Isomer B of Example 12, 5-[3-(3,4-Dimethoxyphenyl)-1-methylpropylidene]-4-oxo-2-thioxothiazolidine] | 97.9% | 70.6% | 60-90% | 60-90% | no mortality was observed
COc1ccc(C=CC(C)=C2SC(=S)NC2=O)cc1OC (single isomer, unassigned) [Isomer B of Example 1] | 82.4% | 58.0% | 60-90% | 60-90% | 
CCCC(C=Cc1ccc(C(=O)O)cc1)=C1SC(=S)NC1=O (single isomer, unassigned) [Isomer A of Example 17, 4-[3-(4-Oxo-2-thioxo-5-thiazolidinylidene)-1-hexen-1-yl]benzoic acid] | 84.7% |  |  |  | 
COc1ccc(C=CC(CCCC(=O)O)=C2SC(=S)NC2=O)cc1OC (single isomer, unassigned) [Isomer B of Example 19, 7-(3,4-dimethoxyphenyl)-5-(4-oxo-2-thioxo-5-thiazolidinilydene)-6-heptenoic acid] | 85.1% |  |  |  | 
CCOC(=O)CCCC(C=Cc1ccc(OC)c(OC)c1)=C1SC(=S)NC1=O [Ethyl ester compound of Example 19, ethyl 7(3,4-dimethoxyphenyl)-5-(4-oxo-2-thioxo-5-thiazolidinilydene)-6-heptenoate] | 90.5% |  |  |  | 
COc1ccc(CCC(C)=C2SC(=S)NC2=O)cc1OC (single isomer, unassigned) [Isomer A of Example 12, 5-[3-(3,4-Dimethoxyphenyl)-1-methylpropylidene]-4-oxo-2-thioxothiazolidine] | 100.0% | 76.2% | 60-90% | 60-90% | no mortality was observed
CC(C=Cc1cccs1)=C1SC(=S)NC1=O (single isomer, unassigned) [Isomer B of Example 15, 5-[3-(2-Thienyl)-1-methyl-2-propenylidene]-4-oxo-2-thioxothiazolidine] |  |  | 60-90% | 60-90% | 
CCOC(=O)CCC(C=Cc1ccc(OC)c(OC)c1)=C1SC(=S)NC1=O [Compound of Example 14, Ethyl 6-(3,4-dimethoxyphenyl)-4-(4-oxo-2-thioxo-5-thiazolidinylidene)-5-hexenoate] | 98.1% |  | 60-90% | 60-90% | 
CCCC(C=Cc1ccc(C(=O)O)cc1)=C1SC(=S)NC1=O (single isomer, unassigned) [Isomer B of Example 17, 4-[3-(4-Oxo-2-thioxo-5-thiazolidinylidene)-1-hexen-1-yl]benzoic acid] | 79.8% |  |  |  | 
